Assay results from PubChem BioAssay (NCI).
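Each compound was tested at five concentrations against cells in 96-well plates for 48 hours. Here, GI50 denotes the concentration required for 50% inhibition of growth. TGI marks complete inhibition of growth.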

Experiments:
Test in all cases: inhibition of tumour cell growth, NCI panel, 48 h
ACHN renal = system: ACHN renal
SN12C renal = system: SN12C renal
SNB-19 CNS = system: SNB-19 CNS
LOX IMVI melanoma = system: LOX IMVI melanoma
K-562 leukemia = system: K-562 leukemia
HCT-116 colon = system: HCT-116 colon
MALME-3M melanoma = system: MALME-3M melanoma
T-47D breast = system: T-47D breast
UO-31 renal = system: UO-31 renal
M14 melanoma = system: M14 melanoma

Row | SMILES | GI50 (ACHN renal) [µM] | TGI (ACHN renal) [µM] | GI50 (SN12C renal) [µM] | TGI (SN12C renal) [µM] | GI50 (SNB-19 CNS) [µM] | TGI (SNB-19 CNS) [µM] | GI50 (LOX IMVI melanoma) [µM] | TGI (LOX IMVI melanoma) [µM] | GI50 (K-562 leukemia) [µM] | GI50 (HCT-116 colon) [µM] | TGI (HCT-116 colon) [µM] | GI50 (MALME-3M melanoma) [µM] | TGI (MALME-3M melanoma) [µM] | GI50 (T-47D breast) [µM] | TGI (T-47D breast) [µM] | GI50 (UO-31 renal) [µM] | TGI (UO-31 renal) [µM] | TGI (K-562 leukemia) [µM] | TGI (M14 melanoma) [µM] | GI50 (M14 melanoma) [µM]
1 | O=C1c2cccc3cccc(c23)C(=O)N1CCCCCN1CCN(CCCCCOc2ccc(-c3nc4ccc(N5CCOCC5)cc4[nH]3)cc2)CC1 | > 35.7 | > 56.1 | > 100 | > 100 | > 46.1 | > 60 | 3.01 | 7.97 | 0.135 | 5.06 | > 100 | 17.7 | 40 | 2.01 | 7.71 | 3.47 | 34.7 | – | – | –
2 | Cc1ccc(S(=O)OCc2c(C)c(C)c(COS(=O)c3ccc(C)cc3)c(C)c2C)cc1 (stereo not given) | – | > 100 | – | > 100 | – | > 100 | – | > 100 | – | – | > 100 | – | > 100 | – | – | – | > 100 | > 100 | > 100 | –
3 | Cc1cc(N(CCCNc2ccnc3cc(Cl)ccc23)Cc2ccc3c(c2)OCO3)nc(N2CCOCC2)n1 | – | – | 0.292 | 14.4 | 0.325 | > 100 | 0.216 | 0.534 | 0.328 | 0.245 | 0.882 | – | – | 0.323 | 0.998 | – | – | 10 | – | –
4 | O=C(NNc1ccccc1)C(=O)NNc1ccccc1 | 2.03 | > 100 | > 100 | > 100 | > 100 | > 100 | 4.34 | > 100 | 0.396 | 6.42 | > 100 | > 100 | > 100 | 0.52 | > 100 | > 100 | > 100 | > 100 | – | –
5 | CC1CCN(C(=O)OCc2nc3nc(Cl)nc(N4CCOCC4)c3[nH]2)CC1 | 0.583 | 1.88 | 0.865 | 2.16 | 1.55 | 2.9 | 0.175 | 0.473 | 0.434 | 0.209 | 1.16 | 1.5 | 2.86 | 1.76 | 4.89 | 0.692 | 2.05 | 13.6 | – | –
6 | COc1cccc2c1C(=O)c1c(O)c3c(c(O)c1C2=O)C[C@@](O)(/C(C)=N/NC(=O)c1ccc(Cl)cc1)C[C@@H]3OC1CC(N)C(O)C(C)O1 (stereo not given in full) | 0.181 | 1.43 | 0.156 | 3 | 0.162 | 1.9 | – | – | – | 0.147 | 1.49 | – | – | 0.163 | 1.79 | 0.488 | 4.55 | – | – | –
7 | CC(C)=CCc1cc2c(cc1O)OC[C@H]1c3cc4c(cc3O[C@@H]21)OCO4 | – | > 100 | – | – | – | > 100 | – | 31.7 | – | – | 32.2 | – | – | – | > 100 | – | > 100 | > 100 | > 100 | –
8 | COc1cc(/C=C\c2cc(OC)c(OC)c(OC)c2)cc(N/C=C\C(=O)c2cc(OC)c(OC)c(OC)c2)c1OC | 3.99 | > 100 | 4.03 | > 100 | 4.49 | > 100 | 3.54 | > 100 | 3.38 | 2.78 | > 100 | 2.91 | > 100 | 1.68 | 6.83 | 2.63 | > 100 | > 100 | – | –
9 | COc1ccc(-c2cc(/C=C/C(=O)c3ccc(OC)c(OC)c3)[nH]n2)cc1 | 1.68 | 3.83 | 1.64 | 3.78 | 1.88 | 5.28 | – | – | 1.28 | 1.01 | 2.48 | 1.62 | 3.45 | 1.6 | 5.15 | 1.17 | 2.44 | 10.7 | 4.97 | 2.17
10 | CC(C)OC(=O)[C@H](C)NP(=O)(OC[C@H]1O[C@@H](n2ccc(=O)[nH]c2=O)[C@](C)(F)[C@@H]1O)Oc1ccccc1 (stereo not given in full) | > 100 | > 100 | > 100 | > 100 | > 100 | > 100 | > 100 | > 100 | – | > 100 | > 100 | > 100 | > 100 | > 100 | > 100 | > 100 | > 100 | – | > 100 | > 100
11 | C=CCN1CCC23c4c5ccc(O)c4OC2C(=NN=C2CCC4(O)C6Cc7ccc(O)c8c7C4(CCN6CC=C)C2O8)CCC3(O)C1C5 (stereo not given) | – | 41.2 | – | 47.8 | – | > 100 | – | 41.1 | – | – | – | – | 33.4 | – | – | – | > 100 | 78.7 | 32 | –
12 | Cn1cc(-c2csc(-c3c[nH]c4ccc(Br)cc34)n2)c2cnccc21 | – | – | 1.75 | 3.35 | 3.67 | > 100 | – | – | 0.345 | 1.56 | 3.11 | 2.23 | 3.96 | – | – | – | – | 1.28 | 3.61 | 1.87
13 | COc1ccc(/C(=C\C=C(C#N)C#N)Sc2nc3ccccc3s2)cc1 | – | – | 7.06 | 32.8 | 12.6 | 29.6 | – | – | 1.58 | – | – | – | – | 6.82 | 27 | 15.6 | > 50 | > 50 | 9.08 | 2.52
14 | CCN(CC)CCSc1c2ccccc2nc2c(OC)ccc(OC)c12 | – | > 23.5 | – | > 39.3 | – | > 100 | – | > 41.2 | – | – | 17.7 | – | > 60.9 | – | – | – | 33.9 | > 24.5 | 15.4 | –
15 | C[Si](C)(C)/C(I)=C/CO | – | 46.4 | – | 64.7 | – | 64.7 | – | 42.1 | – | – | 27.5 | – | 74.9 | – | – | – | 71.5 | 41.4 | > 100 | –
16 | CCCCCCCN=C(N)c1ccc(N2CCN(c3ccc(C(N)=NCCCCCCC)cc3)CC2)cc1 | 0.499 | 24.8 | 1.08 | 14.7 | 0.643 | 17.4 | 1.52 | 19.1 | 0.147 | – | > 72.1 | – | – | – | > 93.4 | 0.781 | > 100 | > 9.41 | > 100 | 7.29
17 | O=C(Nc1ccc(Cl)c(C(F)(F)F)c1)c1ccc(NC2=C(Cl)C(=O)N(Cc3ccccc3)C2=O)cc1 | 4.18 | 15.2 | 17.9 | 31.8 | 29.2 | > 100 | 1.24 | 2.63 | 3.49 | 13.9 | 27.2 | – | – | 6.11 | > 100 | – | – | 7.24 | 41.6 | 19.6
